# US10111847B2, “Compounds and methods for modulating vascular injury” (The Regents of the University of California, priority 2012, dated 2018)
# Experiments:
# p65 subunit = assay: Nuclear translocation of p65 subunit in sv-ECs (immunofluorescence); assay type: cell-based, human; settings: 100 nm, 30 min; TNFα 1 ng/ml 2 hrs
# Experimental: Immunofluorescence for p65 (RelA): 15000 VSMCs or 30000 ECs were seeded on a 8-well chamber slide. Cells received 30 min of Maresin-1 pretreatment, followed by TNF-α for 2 hr. Cells were fixed in 2% paraformaldehyde, followed by permeabilization with ice-cold acetone (10 min) and 1% Triton X-100 (20 min). Cells were incubated overnight in a humidified chamber with anti-p65 antibody (Santa Cruz Biotechnology Inc.) followed by Alexa-fluor 488 tagged secondary antibody (Life Technologies) and were visualized under a fluorescent microscope.
# ECs were grown in chamber slides and treated with vehicle or 100 nm of 7S-Maresin-1 for 30 min, followed by TNFα (1 ng/ml) for 2 hrs. Cells were fixed and subsequently stained with anti-p65 (Santa Cruz Biotechnology) and secondary antibodies (Alexa-488).
# FIGS. 17A-17D. Representative images of Ctrl (A), TNFα (B), 7S-Maresin-1+TNFα. (C). (D) Mean fluorescence of nucleus and cytoplasm were quantified from all groups and the net result of the ratio of nucleus over cytoplasmic mean fluorescence is depicted in the bar graph, as a measure of relative p65 nuclear translocation. (N>=3). P≤0.05, One-way ANOVA with Dunnett's post hoc test. *: P≤0.05 compared to control, unpaired t-test. †: P≤0.05 compared to TNFα, unpaired t-test. Error bars: SEM.
# human sv-VSMCs = assay: PDGF-BB induced VSMC cell-shape measurement (phalloidin); assay type: cell-based; settings: 100 nM, 30 min; PDGF-BB 50 ng/ml 1 hr
# Experimental: Cells were cultured in 8-well chamber slides (3,000 cells/well) and pretreated with MaR-1 or vehicle (0.1% ethanol) for 30 min followed by the addition of PDGF-BB (50 ng/ml) for 1 h. Cells were washed twice in phosphate-buffered saline (PBS), permeabilized with 0.1% Triton-X, and then fixed in 4% formaldehyde, labeled with Alexa Fluor 568 phalloidin (Invitrogen) and DAPI, and then mounted on glass slides. Cell area and length/width ratio were determined by outlining the cell dimensions and computing 2-dimensional area using GIMP image analysis software (GIMP, freeware; www.gimp.org). For each condition, dimensions were measured from 30 randomly selected cells, and all treatment conditions were performed in triplicate.
# Human sv-VSMCs cultured in chamber slides were treated with 7S-Maresin-1 at 100 nM or vehicle for 30 min, followed by PDGF-BB, 50 ng/ml for 1 hr. Cells were then fixed, permeabilized and stained with phalloidin (Life technologies).
# FIGS. 21A-21E. (A) Vehicle Control. (B) PDGF-BB, 50 ng/ml. (C) 7S-Maresin-1, 100 nm+PDGF-BB, 50 ng/ml. (D) 7S-Maresin-1, 100 nm+pertussis toxin, 10 ng/ml+PDGF-BB, 50 ng/ml. (E) Graphical summary of N=4 per group. P≤0.01, One-way ANOVA with Dunnett's post hoc test. *P<0.05 compared to PDGF-BB (50 ng/ml). †: P≤0.05 compared to PDGF-BB alone, unpaired t-test. ‡: P≤0.05 compared to PDGF-BB+7S-Maresin-1, unpaired t-test. Error bars: SEM.
# TNF-α-stimulated EC = assay: U937 monocyte adhesion to TNF-α-stimulated EC (Maresin-1); assay type: cell-based, human; settings: 1-100 nM, 30 min pretreatment; TNFα 1 ng/ml 4 hr
# Experimental: MaR-1. VSMCs and ECs were seeded on a 96 well plate (20000 cells/well for VSMCs and 50000 cells/well for ECs) and after 2 days, were treated with Maresin-1 (1-100 nM) for 30 min followed by TNF-α for 4 hr and then calcein AM-labeled U937 cells were added on top of the VSMCs. After 15-minute incubation at 37 C, unbound cells were washed off with cold PBS. Fluorescence measurements (ex 494 nm, em 517 nm) of bound monocytes were taken with a plate reader. For capturing images, the assay was performed in 8-well chamber slides (Nunc Labtek) and images were taken after cold PBS wash (three times) following U937 incubation.
# FIGS. 15A-15D. Representative images of Calcein-AM labeled U937 monocytes adhered to human sv-VSMCs pretreated with vehicle (A, B) or 7S-Maresin-1 (C) or 7S-Maresin-1 and pertussis toxin (D) for 30 min, followed by TNFα at 10 ng/ml for 4 hr (B, C, D). (E) Quantitative analysis of U937 adhesion assay in human sv-VSMCs and (F) human sv-ECs (1 ng/ml TNFα used for EC cells). […] Bar graph represents net quantitative densitometry analysis. […] Expression of MCP-1 was measured by qRT-PCR, and normalized to unstimulated cells (n=3, results are mean±SEM, P<0.05 for Mar-1 (10 and 100 nM) vs TNF alone, unpaired t-test).
smiles,measurement,setting,value
"CC/C=C\C/C=C\C[C@H](O)\C=C/C=C/C=C/[C@@H](O)C/C=C\CCC(=O)O [7S-Maresin-1, 7S,14R-dihydroxydocosa-4Z,8E,10Z,12Z,16Z,19Z-hexaenoic acid]",nuclear translocation of p65 subunit in human sv-ECs,p65 subunit,Inhibits
same,PDGF-BB induced vascular smooth muscle cell shape change,human sv-VSMCs,Alters
same,monocyte adhesion (U937) to TNF-α-stimulated EC,TNF-α-stimulated EC,dose-dependent inhibition
